Measured values reported in patent US12264156B2, “Compounds and pharmaceutical compositions thereof for the treatment of diseases” (GALAPAGOS NV, priority 2018, dated 2025).

Assays:
Assay type in all cases: biochemical
Conditions in all cases: ADP-Glo SIK kinase assay
SIK3 = target: T1, SIK3 (Homo sapiens, UniProt Q9Y2K2); assay: ADP-Glo kinase assay, SIK3
T1 construct: purchased SignalChem S12-11G-100
Description: (§1) The ADP-Glo™ kinase assay is a luminescent technology assay which measures the ADP formed from a kinase reaction. […] In a second step the kinase reactions are terminated and all the remaining ATP is depleted. In a final step the ADP is converted into ATP and this newly synthesized ATP is measured by using a luciferase/luciferin reaction. The generated light is measured using an Envision plate reader, wherein the luminescent signal obtained positively correlates with the kinase activity.
(§2) 1% DMSO and 10 μM staurosporine final concentrations are used as negative and positive controls.
(§3) 2 μL enzyme-substrate mixture is added to the assay plates.
(§4) The reaction is started by adding 2 μL diluted ATP on the assay plates. Plates are centrifuged for a few seconds at 1000 rpm and gently shaken for 2 min followed by an incubation at RT for 120 min.
(§5) The reactions are stopped and the unconsumed ATP is depleted by adding 5 μL ADP-Glo Reagent (Promega, Cat #V912B) to the reaction. The plates are centrifuged for a few seconds at 1000 rpm and incubated at RT for 40 min (ATP depletion).
(§6) The ADP is converted to ATP and luciferase and luciferin is introduced to detect ATP by adding 10 μL Kinase Detection Reagent (Promega, Cat #V913B+V914B) to the reaction. The plates are centrifuged for a few seconds at 1000 rpm and incubated at RT for 30 min (ADP detection).
(§7) Luminescence is measured on an Envision plate reader (PerkinElmer Inc.).

SIK2 = target: T2, SIK2 (Homo sapiens, UniProt Q9H0K1); assay: ADP-Glo kinase assay, SIK2
T2 construct: purchased ThermoFisher Scientific PV4792
T2 sequence (Q9H0K1 whole entry): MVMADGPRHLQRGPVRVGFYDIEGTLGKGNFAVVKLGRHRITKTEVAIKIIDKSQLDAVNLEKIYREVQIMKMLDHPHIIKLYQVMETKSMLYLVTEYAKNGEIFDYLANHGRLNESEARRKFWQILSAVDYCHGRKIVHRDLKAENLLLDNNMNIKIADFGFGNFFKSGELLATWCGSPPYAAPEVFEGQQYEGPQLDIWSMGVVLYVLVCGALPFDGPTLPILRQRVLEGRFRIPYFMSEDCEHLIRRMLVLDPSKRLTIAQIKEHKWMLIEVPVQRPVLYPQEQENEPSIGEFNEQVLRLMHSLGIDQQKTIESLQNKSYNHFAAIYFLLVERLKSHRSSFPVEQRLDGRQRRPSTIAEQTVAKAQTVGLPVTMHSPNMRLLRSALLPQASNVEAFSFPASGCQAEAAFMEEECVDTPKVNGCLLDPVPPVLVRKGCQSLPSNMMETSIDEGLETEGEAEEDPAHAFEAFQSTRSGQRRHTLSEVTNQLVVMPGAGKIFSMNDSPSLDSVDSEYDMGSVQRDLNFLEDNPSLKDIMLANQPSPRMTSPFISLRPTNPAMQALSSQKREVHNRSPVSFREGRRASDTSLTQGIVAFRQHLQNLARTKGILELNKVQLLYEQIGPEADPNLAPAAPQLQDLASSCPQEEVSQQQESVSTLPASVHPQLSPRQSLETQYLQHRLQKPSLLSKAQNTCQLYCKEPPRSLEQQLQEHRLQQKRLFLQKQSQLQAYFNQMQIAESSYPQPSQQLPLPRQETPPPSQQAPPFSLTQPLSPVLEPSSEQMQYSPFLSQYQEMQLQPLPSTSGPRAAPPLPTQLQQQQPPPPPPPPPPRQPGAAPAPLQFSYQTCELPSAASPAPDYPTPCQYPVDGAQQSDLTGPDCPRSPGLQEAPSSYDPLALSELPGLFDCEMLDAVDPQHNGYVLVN
Description: as §1, §2, §3, §4, §5, §6, §7

SIK1 = target: T3, SIK1 (Homo sapiens, UniProt P57059); assay: ADP-Glo kinase assay, SIK1
T3 construct: purchased Carna Biosciences 02-131
T3 sequence (P57059 whole entry): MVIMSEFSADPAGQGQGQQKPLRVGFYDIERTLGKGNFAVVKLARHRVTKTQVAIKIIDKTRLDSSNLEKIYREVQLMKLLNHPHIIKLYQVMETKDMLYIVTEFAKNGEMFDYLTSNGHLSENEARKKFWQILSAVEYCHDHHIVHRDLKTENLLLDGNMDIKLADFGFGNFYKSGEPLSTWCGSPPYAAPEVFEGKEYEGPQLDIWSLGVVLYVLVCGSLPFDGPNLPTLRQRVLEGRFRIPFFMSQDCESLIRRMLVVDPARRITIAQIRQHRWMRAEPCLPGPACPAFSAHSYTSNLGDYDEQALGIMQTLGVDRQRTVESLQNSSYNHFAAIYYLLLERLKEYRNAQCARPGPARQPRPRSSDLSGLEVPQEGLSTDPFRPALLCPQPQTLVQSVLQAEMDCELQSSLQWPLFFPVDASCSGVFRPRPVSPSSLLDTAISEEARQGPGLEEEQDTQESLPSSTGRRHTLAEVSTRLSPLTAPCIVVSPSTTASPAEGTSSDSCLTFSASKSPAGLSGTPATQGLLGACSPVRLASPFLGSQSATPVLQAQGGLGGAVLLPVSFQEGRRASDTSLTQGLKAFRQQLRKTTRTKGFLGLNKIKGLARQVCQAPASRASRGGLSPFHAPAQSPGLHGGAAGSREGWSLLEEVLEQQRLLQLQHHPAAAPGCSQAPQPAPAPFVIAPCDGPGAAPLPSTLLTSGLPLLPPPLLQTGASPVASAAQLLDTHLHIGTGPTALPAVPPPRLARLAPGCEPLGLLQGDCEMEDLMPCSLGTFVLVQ
Description: as §1, §2, §3, §4, §5, §6, §7

T1 sequence (Q9Y2K2 whole entry): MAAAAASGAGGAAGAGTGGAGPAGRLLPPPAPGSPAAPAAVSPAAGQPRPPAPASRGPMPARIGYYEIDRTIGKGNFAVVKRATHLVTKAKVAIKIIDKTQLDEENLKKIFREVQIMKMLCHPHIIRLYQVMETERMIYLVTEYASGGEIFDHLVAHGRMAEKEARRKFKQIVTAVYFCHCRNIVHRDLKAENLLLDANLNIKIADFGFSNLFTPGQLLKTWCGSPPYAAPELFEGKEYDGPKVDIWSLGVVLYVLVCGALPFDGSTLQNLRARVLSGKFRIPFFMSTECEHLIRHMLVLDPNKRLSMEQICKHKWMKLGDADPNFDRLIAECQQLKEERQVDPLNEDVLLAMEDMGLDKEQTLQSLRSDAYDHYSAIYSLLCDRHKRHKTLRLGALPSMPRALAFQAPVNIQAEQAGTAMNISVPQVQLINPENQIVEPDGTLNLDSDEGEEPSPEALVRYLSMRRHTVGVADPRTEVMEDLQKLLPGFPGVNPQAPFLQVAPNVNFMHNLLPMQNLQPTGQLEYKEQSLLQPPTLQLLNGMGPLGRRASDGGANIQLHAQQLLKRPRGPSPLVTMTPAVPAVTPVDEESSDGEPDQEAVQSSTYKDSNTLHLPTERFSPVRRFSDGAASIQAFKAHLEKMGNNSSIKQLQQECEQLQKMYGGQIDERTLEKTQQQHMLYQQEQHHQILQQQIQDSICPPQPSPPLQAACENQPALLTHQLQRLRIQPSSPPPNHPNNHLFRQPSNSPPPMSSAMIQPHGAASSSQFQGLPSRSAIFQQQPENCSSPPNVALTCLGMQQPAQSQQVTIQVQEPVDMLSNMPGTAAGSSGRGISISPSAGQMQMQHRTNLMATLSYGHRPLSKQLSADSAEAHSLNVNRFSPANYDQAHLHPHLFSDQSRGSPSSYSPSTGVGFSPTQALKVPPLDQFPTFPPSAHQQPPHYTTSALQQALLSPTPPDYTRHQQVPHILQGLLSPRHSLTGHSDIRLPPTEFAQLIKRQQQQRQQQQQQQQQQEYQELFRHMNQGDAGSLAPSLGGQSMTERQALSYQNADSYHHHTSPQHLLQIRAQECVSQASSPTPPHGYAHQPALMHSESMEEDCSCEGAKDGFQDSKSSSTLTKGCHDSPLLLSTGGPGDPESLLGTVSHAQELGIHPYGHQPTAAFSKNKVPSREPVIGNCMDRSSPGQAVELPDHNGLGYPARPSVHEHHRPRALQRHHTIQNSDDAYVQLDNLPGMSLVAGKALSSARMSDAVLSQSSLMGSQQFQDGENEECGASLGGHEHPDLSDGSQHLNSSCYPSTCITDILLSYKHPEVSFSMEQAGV

Compound | IC50 (SIK3) | IC50 (SIK2) | IC50 (SIK1)
COc1cc(-c2cnc3cc(OCCN(C)C)ccn23)cc(F)c1C(=O)NC1CC1 [compound 51, N-cyclopropyl-4-[7-[2-(dimethylamino)ethoxy]imidazo[1,2-a]pyridin-3-yl]-2-fluoro-6-methoxy-benzamide] | 10 to 100 nM | 10 to 100 nM | > 500 nM
COc1cc(-c2cnc3cc(OCc4ccnn4C)ccn23)cnc1C(=O)NCC(F)(F)F [compound 262, 3-methoxy-5-[7-[(2-methylpyrazol-3-yl)methoxy]imidazo[1,2-a]pyridin-3-yl]-N-(2,2,2-trifluoroethyl)pyridine-2-carboxamide] | 10 to 100 nM | 100 to 500 nM | > 500 nM
COc1cc(-c2cnc3cc(OCCNC(C)=O)ccn23)cc(OC(F)F)c1C(=O)NC1CC1 [compound 27, 4-[7-(2-acetamidoethoxy)imidazo [1,2-a]pyridin-3-yl]-N-cyclopropyl-2-(difluoromethoxy)-6-methoxy-benzamide] | 0.01 to 10 nM | 0.01 to 10 nM | 0.01 to 10 nM
COc1cc(-c2cnc3cc(OCC4CCCN4)ccn23)cc(OC(F)F)c1C(=O)NC1CC1 (stereo not drawn) [Cpd 154, N-cyclopropyl-2-(difluoromethoxy)-6-methoxy-4-[7-(pyrrolidin-2-ylmethoxy)imidazo[1,2-a]pyridin-3-yl]benzamide] | 0.01 to 10 nM | 0.01 to 10 nM | 10 to 100 nM
COc1cc(-c2cnc3cc(OC4CCN(C)CC4)ccn23)cc(OC(F)F)c1C(=O)NC1CC1 [compound 7, N-cyclopropyl-2-(difluoromethoxy)-6-methoxy-4-[7-[(1-methyl-4-piperidyl)oxy]imidazo[1,2-a]pyridin-3-yl]benzamide] | 10 to 100 nM | 10 to 100 nM | > 500 nM
CCOC(=O)C1CCCN(CCOc2ccn3c(-c4cc(OC)c(C(=O)NC5CC5)c(OC(F)F)c4)cnc3c2)C1 (stereo not drawn) [compound 392, ethyl 1-[2-[3-[4-(cyclopropylcarbamoyl)-3-(difluoromethoxy)-5-methoxy-phenyl]imidazo[1,2-a]pyridin-7-yl]oxyethyl]piperidine-3-carboxylate] | 0.01 to 10 nM | 0.01 to 10 nM | 10 to 100 nM
CN(C)CCOc1ccn2c(-c3cc(F)c(C(=O)NC4CC4)c(OC(F)F)c3)cnc2c1 [compound 146, N-cyclopropyl-2-(difluoromethoxy)-4-[7-[2-(dimethylamino)ethoxy]imidazo[1,2-a]pyridin-3-yl]-6-fluoro-benzamide] | 10 to 100 nM | 10 to 100 nM | > 500 nM
COc1cc(-c2cnc3cc(OCCCN)ccn23)cc(OC(F)F)c1C(=O)NC1CC1 [compound 115, 4-[7-(3-aminopropoxy)imidazo [1,2-a]pyridin-3-yl]-N-cyclopropyl-2-(difluoromethoxy)-6-methoxy-benzamide] | 0.01 to 10 nM | 0.01 to 10 nM | 10 to 100 nM
COc1cc(-c2cnc3cc(OCc4nc(C)no4)ccn23)cc(OC(F)F)c1C(=O)NC1CC1 [compound 229, N-cyclopropyl-2-(difluoromethoxy)-6-methoxy-4-[7-[(3-methyl-1,2,4-oxadiazol-5-yl)methoxy]imidazo[1,2-a]pyridin-3-yl]benzamide] | 0.01 to 10 nM | 0.01 to 10 nM | 10 to 100 nM
COc1cc(-c2cnc3cc(OCC(C)(C)CO)ccn23)cc(OC(F)F)c1C(=O)NC1CC1 [compound 74, N-cyclopropyl-2-(difluoromethoxy)-4-[7-(3-hydroxy-2,2-dimethyl-propoxy)imidazo[1,2-a]pyridin-3-yl]-6-methoxy-benzamide] | 0.01 to 10 nM | 0.01 to 10 nM | 10 to 100 nM
COc1cc(-c2cnc3cc(OC[C@H]4CCCN(C5COC5)C4)ccn23)cc(OC(F)F)c1C(=O)NC1CC1 [compound 318, N-cyclopropyl-2-(difluoromethoxy)-6-methoxy-4-[7-[[(3S)-1-(oxetan-3-yl)-3-piperidyl]methoxy]imidazo[1,2-a]pyridin-3-yl]benzamide] | 0.01 to 10 nM | 0.01 to 10 nM | 0.01 to 10 nM
COc1cc(-c2cnc3cc(OCCCN4CCOCC45COC5)ccn23)cc(OC(F)F)c1C(=O)NC1CC1 [compound 296, N-cyclopropyl-2-(difluoromethoxy)-4-[7-[3-(2,8-dioxa-5-azaspiro[3.5]nonan-5-yl)propoxy]imidazo[1,2-a]pyridin-3-yl]-6-methoxy-benzamide] | 0.01 to 10 nM | 0.01 to 10 nM | 10 to 100 nM
COc1cc(-c2cnc3cc(OCC4(C)CN(C)C4)ccn23)cc2c1C(=O)N(CC(F)(F)F)CC2 [Cpd 253, 6-[7-[(1,3-dimethylazetidin-3-yl)methoxy]imidazo[1,2-a]pyridin-3-yl]-8-methoxy-2-(2,2,2-trifluoroethyl)-3,4-dihydroisoquinolin-1-one] | 0.01 to 10 nM | 10 to 100 nM | > 500 nM
COc1cc(-c2cnc3cc(OC4CCC(F)(F)C4)ccn23)cc(OC(F)F)c1C(=O)NC1CC1 (stereo not drawn) [compound 62, N-cyclopropyl-4-[7-(3,3-difluorocyclopentoxy)imidazo[1,2-a]pyridin-3-yl]-2-(difluoromethoxy)-6-methoxy-benzamide] | 0.01 to 10 nM | 10 to 100 nM | 10 to 100 nM

Next, values leading:

IC50 (SIK3) | IC50 (SIK2) | IC50 (SIK1) | Compound
0.01 to 10 nM | 0.01 to 10 nM | 10 to 100 nM | COc1cc(-c2cnc3cc(OCC(N)C4CCOC4)ccn23)cc(OC(F)F)c1C(=O)NC1CC1 (stereo not drawn) [compound 134, 4-[7-(2-amino-2-tetrahydrofuran-3-yl-ethoxy)imidazo[1,2-a]pyridin-3-yl]-N-cyclopropyl-2-(difluoromethoxy)-6-methoxy-benzamide]
0.01 to 10 nM | 0.01 to 10 nM | 10 to 100 nM | COc1cc(-c2cnc3cc(OCCCN4CC5(CCS5(=O)=O)C4)ccn23)cc(OC(F)F)c1C(=O)NC1CC1 [compound 332, N-cyclopropyl-2-(difluoromethoxy)-4-[7-[3-(1,1-dioxo-1λ^6-thia-6-azaspiro[3.3]heptan-6-yl)propoxy]imidazo[1,2-a]pyridin-3-yl]-6-methoxy-benzamide]
0.01 to 10 nM | 0.01 to 10 nM | 10 to 100 nM | COc1cc(-c2cnc3cc(OCCN4C(C)CCCC4C)ccn23)cc(OC(F)F)c1C(=O)NC1CC1 (stereo not drawn) [compound 294, N-cyclopropyl-2-(difluoromethoxy)-4-[7-[2-(2,6-dimethyl-1-piperidyl)ethoxy]imidazo [1,2-a]pyridin-3-yl]-6-methoxy-benzamide]
0.01 to 10 nM | 0.01 to 10 nM | 0.01 to 10 nM | COc1cc(-c2cnc3cc(OCCc4cnn(C)c4)ccn23)cc(OC(F)F)c1C(=O)NC1CC1 [compound 204, N-cyclopropyl-2-(difluoromethoxy)-6-methoxy-4-[7-[2-(1-methylpyrazol-4-yl)ethoxy]imidazo[1,2-a]pyridin-3-yl]benzamide]
0.01 to 10 nM | 0.01 to 10 nM | 10 to 100 nM | CCOC(=O)C1CCCN(CCCOc2ccn3c(-c4cc(OC)c(C(=O)NC5CC5)c(OC(F)F)c4)cnc3c2)C1 (stereo not drawn) [compound 395, ethyl 1-[3-[3-[4-(cyclopropylcarbamoyl)-3-(difluoromethoxy)-5-methoxy-phenyl]imidazo[1,2-a]pyridin-7-yl]oxypropyl]piperidine-3-carboxylate]
0.01 to 10 nM | 10 to 100 nM | 100 to 500 nM | CCOc1ccn2c(-c3cc4c(c(OC)c3)C(=O)N(CC(F)(F)F)CC4)cnc2c1 [Cpd 264, 6-(7-ethoxyimidazo[1,2-a]pyridin-3-yl)-8-methoxy-2-(2,2,2-trifluoroethyl)-3,4-dihydroisoquinolin-1-one]
0.01 to 10 nM | 0.01 to 10 nM | 10 to 100 nM | COc1cc(-c2cnc3cc(OCCOCCO)ccn23)cc(OC(F)F)c1C(=O)NC1CC1 [compound 73]
0.01 to 10 nM | 10 to 100 nM | 100 to 500 nM | COc1cc(-c2cnc3cc(OCC(C)(C)N4CCOCC4)ccn23)cc(OC(F)F)c1C(=O)NC1CC1 [compound 11, N-cyclopropyl-2-(difluoromethoxy)-6-methoxy-4-[7-(2-methyl-2-morpholino-propoxy)imidazo[1,2-a]pyridin-3-yl]benzamide]
0.01 to 10 nM | 0.01 to 10 nM | 10 to 100 nM | COc1cc(-c2cnc3cc(OCc4cncs4)ccn23)cc(OC(F)F)c1C(=O)NC1CC1 [compound 95, N-cyclopropyl-2-(difluoromethoxy)-6-methoxy-4-[7-(thiazol-5-ylmethoxy)imidazo[1,2-a]pyridin-3-yl]benzamide]
0.01 to 10 nM | 0.01 to 10 nM | 0.01 to 10 nM | COc1cc(-c2cnc3cc(OCC4CC(N)C4)ccn23)cc(OC(F)F)c1C(=O)NC1CC1 (stereo not drawn) [compound 108, 4-[7-[(3-aminocyclobutyl)methoxy]imidazo[1,2-a]pyridin-3-yl]-N-cyclopropyl-2-(difluoromethoxy)-6-methoxy-benzamide]
0.01 to 10 nM | 0.01 to 10 nM | 10 to 100 nM | COc1cc(-c2cnc3cc(OCCN4CCC(F)(F)C4)ccn23)cc(OC(F)F)c1C(=O)NC1CC1 [compound 180, N-cyclopropyl-2-(difluoromethoxy)-4-[7-[2-(3,3-difluoropyrrolidin-1-yl)ethoxy]imidazo[1,2-a]pyridin-3-yl]-6-methoxy-benzamide]
